The source of these data is paper PMC6017562, “Aethiopinolones A–E, New Pregnenolone Type Steroids from the East African Basidiomycete Fomitiporia aethiopica” (Molecules : A Journal of Synthetic Chemistry and Natural …, 2018).

The nature of data set [1]: MTT cytotoxicity assay, L929. As to conditions: mouse, L929 fibroblast cells, 5 days incubation. The format is cell-based, mouse. As for the experimental part:
(§1) In vitro cytotoxicity (IC50) of the pure compounds 1–5 was determined against a panel of mammalian cell lines including mouse fibroblast L929, HeLa (KB-3-1), epidermoid carcinoma cells A431, breast cancer cells MCF-7, prostate cancer cells PC-3 and adenocarcinomic human alveolar basal epithelial cells A549. The cell lines were cultured in DMEM (Gibco, ThermoFisher Scientific, Hilden, Germany) and MCF-7 in RPMI (Lonza, Cologne, Germany) media, all supplemented with 10% of fetal bovine serum (Gibco) under 10% CO2 at 37 °C. The cytotoxicity assay was performed according to the MTT (3-(4,5-dimethylthiazol-2-yl)-2,5 diphenyltetrazolium bromide) method in 96-well microplates (ThermoFisher Scientific). Briefly 60 μL aliquots of serial dilutions from an initial stock of 1 mg/mL in MeOH of the test compounds were added to 120 μL aliquots of a cell suspension (5.0 × 10^4 cells/mL) in 96-well microplates. After 5 days incubation, a MTT assay was performed, and the absorbance measured at 590 nm using an ELISA plate reader (Victor, PerkinElmer, Überlingen, Germany). The concentration at which the growth of cells was inhibited to 50% of the control (IC50) was obtained from the dose response curves. The negative control was methanol.
On the technique in general: Formazan colour is commonly taken as a measure of viable cells.

Data set [2] is described as follows: MTT cytotoxicity assay, PC-3. In kind it is cell-based, human. The following applies: human, PC-3 prostate cancer cells, PC-3 cells, 5 days incubation. As for the experimental part: as §1
Data set [3] is described as follows: MTT cytotoxicity assay, SKOV-3. The following applies: human, SKOV-3 cells, 5 days incubation. In kind it is cell-based, human.
Data set [4] can be described thus: MTT cytotoxicity assay, KB3.1. The format is cell-based, human. As to conditions: human, HeLa (KB-3-1) cells, KB3.1 cells, 5 days incubation. The procedure:
as §1

The subject of data set [5] is various mammalian cell lines. Briefly: Cytotoxic effects against the panel of mammalian cell lines (overall statement). In kind it is cell-based. The following applies: all tested cell lines of Table 3. As for the experimental part:
as §1

Data set [6] in a line: MTT cytotoxicity assay, MCF-7. In kind it is cell-based, human. As to conditions: human, MCF-7 breast cancer cells, MCF-7 cells, 5 days incubation. As for the experimental part: as §1
The nature of data set [7]: MTT cytotoxicity assay, A431. The format is cell-based, human. The following applies: human, A431 epidermoid carcinoma cells, 5 days incubation. The procedure:
as §1

Data set [8] in a line: MTT cytotoxicity assay, A549. The format is cell-based, human. As to conditions: human, A549 alveolar basal epithelial adenocarcinoma cells, 5 days incubation. The procedure: as §1
The subject of data set [9] is mouse fibroblast L929. Briefly: MTT cytotoxicity assay, L929. The format is cell-based. As to conditions: L929 cells, 5 days incubation. The procedure:
as §1

The subject of data set [10] is prostate cancer cells PC-3. Briefly: MTT cytotoxicity assay, PC-3. In kind it is cell-based, human. As to conditions: PC-3 cells, 5 days incubation. The procedure:
as §1

Data set [11] has as its system SKOV-3. Description: MTT cytotoxicity assay, SKOV-3. In kind it is cell-based, human. The following applies: SKOV-3 cells, 5 days incubation.
Data set [12] has as its system HeLa (KB-3-1). Briefly: MTT cytotoxicity assay, KB3.1. In kind it is cell-based, human. As to conditions: KB3.1 cells, 5 days incubation. As for the experimental part:
as §1

Data set [13] relates to breast cancer cells MCF-7. Briefly: MTT cytotoxicity assay, MCF-7. In kind it is cell-based, human. The following applies: MCF-7 cells, 5 days incubation. As for the experimental part: as §1
For data set [14], the system named is epidermoid carcinoma cells A431. Briefly: MTT cytotoxicity assay, A431. The format is cell-based, human. The following applies: 5 days incubation. The procedure:
as §1

Data set [15] concerns adenocarcinomic human alveolar basal epithelial cells A549. Description: MTT cytotoxicity assay, A549. The format is cell-based. As to conditions: 5 days incubation. The procedure: as §1

≈ marks a conversion by molar mass, not a printed value.

Consider `CC(=O)C1C(O)CC2C3=CC(=O)C4CC(O)CCC4(C)C3(O)CCC21C` (centres unmarked) [Compound 1, Aethiopinolone A], for which the IC50 – broadly, the point on the concentration scale where inhibition reaches its midpoint – at 5 days in [1] came to 28 mg/L (≈ 77.2 µM); in data set [2], 8 mg/L (≈ 22.1 µM); in data set [3], 26 mg/L (≈ 71.7 µM); in data set [4], 19 mg/L (≈ 52.4 µM); in data set [6], 20 mg/L (≈ 55.2 µM); in [7], 22 mg/L (≈ 60.7 µM). Also, the “Cytotoxic activity against the tested cell lines (in words)” value (“Cytotoxic activity” for short) in data set [5] was “strongest activity”.

For the compound `CC(=O)[C@H]1[C@H](O)C[C@H]2C3=CC(=O)[C@H]4C[C@H](O)CC[C@]4(C)[C@@]3(O)CC[C@@]21C` [Compound 2, Aethiopinolone B], the IC50 at 5 days in data set [1] was 45 mg/L (≈ 124 µM); in data set [2], greater than 70 mg/L; in data set [3], greater than 70 mg/L; in [4] it was 39 mg/L (≈ 108 µM); in data set [6], greater than 70 mg/L; in data set [7], greater than 70 mg/L. Further, the IC50 at 5 days in [8] is greater than 70 mg/L.

For the compound `CC(=O)C1=CC[C@H]2C3=CC(=O)[C@H]4C[C@@H](O)CC[C@]4(C)[C@@]3(O)CC[C@]12C` [Compound 3, Aethiopinolone C], the IC50 at 5 days in [1] turned out to be 40 mg/L (≈ 116 µM); in data set [2], 45 mg/L (≈ 131 µM); in data set [3], 38 mg/L (≈ 110 µM); in [4], 35 mg/L (≈ 102 µM); in [6], 18 mg/L (≈ 52.3 µM); in data set [7] it was 27 mg/L (≈ 78.4 µM). In addition, inhibition in data set [8] was half-maximal at 70 mg/L (≈ 203 µM) (IC50 at 5 days). In [5], the “Cytotoxic activity” value is listed as “moderate activity”.

With `CC(=O)C1=CC[C@H]2C3=CC(=O)[C@H]4C[C@H](O)CC[C@]4(C)[C@@]3(O)CC[C@]12C` [Compound 4, Aethiopinolone D], the IC50 at 5 days in data set [1] came to 45 mg/L (≈ 131 µM); in [2], 40 mg/L (≈ 116 µM); in data set [3], 36 mg/L (≈ 105 µM); in data set [4], 39 mg/L (≈ 113 µM); in data set [6] it was 17 mg/L (≈ 49.4 µM); in data set [7] it was 21 mg/L (≈ 61 µM). Besides, the 50% inhibitory concentration (IC50) at 5 days in data set [8] is 52 mg/L (≈ 151 µM). The “Cytotoxic activity” value in data set [5] is “moderate activity”.

For the compound `CC(=O)C1=CC[C@H]2C3=CC(=O)[C@H]4CC(=O)CC[C@]4(C)[C@@]3(O)CC[C@]12C` [Compound 5, Aethiopinolone E], the IC50 at 5 days in data set [1] turned out to be 40 mg/L (≈ 117 µM); in data set [2], 39 mg/L (≈ 114 µM); in data set [3], 34 mg/L (≈ 99.3 µM); in data set [4] it was 33 mg/L (≈ 96.4 µM); in [6], 16 mg/L (≈ 46.7 µM); in data set [7], 14 mg/L (≈ 40.9 µM). The concentration for half-maximal inhibition (IC50) at 5 days in [8] stood at 43 mg/L (≈ 126 µM).

Consider `C/C(=C\c1csc(C)n1)[C@@H]1C[C@@H]2O[C@]2(C)CCC[C@H](C)[C@H](O)[C@@H](C)C(=O)C(C)(C)[C@@H](O)CC(=O)O1` [Epothilon B, reference compound], for which the “Cytotoxicity IC50” value in data set [9] was determined as 0.0014 mg/L; in [10], 0.0002 mg/L; in [11], 0.0014 mg/L; in data set [12], 0.00022 mg/L; in data set [13], 0.0004 mg/L; in [14] it was 0.0006 mg/L. Further, the “Cytotoxicity IC50” value in [15] came to 0.005 mg/L.
